PubChem BioAssay AID330 (DTP/NCI, 2004)
Values joined by “and” are separate entries in the source; they are usually repeats but may differ in a detail not shown here. Equal entries are not always repeated. Toxic doses and inconclusive results are not listed. The calls were made as follows: active = survival T/C of 150% or more; inactive = T/C below 125% in these data.

System: P388 leukemia ip, CD2F1 mice, survival T/C
Assay: NCI In Vivo Anticancer Drug Screen. Data for tumor model P388 Leukemia (intraperitoneal) in CD2F1 (CDF1) mice
Settings: endpoint: median survival time, higher = longer survival
Summary of the method: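 Mice carrying the transplanted tumor received test compound or vehicle. Survival was recorded in each group, and the value is the treated-group measurement divided by that of the vehicle-treated control group.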

[1] = dose: 12.5 mg/kg/injection, schedule: Q01DX009 (ip), vehicle: saline with Tween-80
[2] = dose: 25.0 mg/kg/injection, schedule: Q01DX009 (ip), vehicle: saline with Tween-80
[3] = dose: 50.0 mg/kg/injection, schedule: Q01DX009 (ip), vehicle: saline with Tween-80

Measured: T/C

O=S(=O)(c1ccc(NC(=S)N/N=C/c2ccccc2O)cc1)N1CCCCC1
inactive: dose: 12.5 mg/kg/injection, schedule: Q01DX009 (ip), vehicle: olive oil, sesame oil, peanut oil 105 % of control | dose: 25.0 mg/kg/injection, schedule: Q01DX009 (ip), vehicle: olive oil, sesame oil, peanut oil 96 % of control | dose: 50.0 mg/kg/injection, schedule: Q01DX009 (ip), vehicle: olive oil, sesame oil, peanut oil 96 % of control | dose: 100.0 mg/kg/injection, schedule: Q01DX009 (ip), vehicle: olive oil, sesame oil, peanut oil 91 % of control | dose: 200.0 mg/kg/injection, schedule: Q01DX009 (ip), vehicle: olive oil, sesame oil, peanut oil 91 % of control | dose: 400.0 mg/kg/injection, schedule: Q01DX009 (ip), vehicle: olive oil, sesame oil, peanut oil 97 % of control

O=C(Oc1cc(Cl)ccc1Cl)c1ccccc1
inactive: [1] 109 % of control and 96 % of control | [2] 100 % of control and 98 % of control | [3] 100 % of control and 102 % of control | dose: 100.0 mg/kg/injection, schedule: Q01DX009 (ip), vehicle: saline with Tween-80 102 % of control and 91 % of control

COc1cccc2c1C(=O)c1c(OC)c(C)cc(OC)c1C2=O
inactive: dose: 1.56 mg/kg/injection, schedule: Q01DX009 (ip), vehicle: water 100 % of control | dose: 3.13 mg/kg/injection, schedule: Q01DX009 (ip), vehicle: water 107 % of control | dose: 6.25 mg/kg/injection, schedule: Q01DX009 (ip), vehicle: water 110 % of control | dose: 12.5 mg/kg/injection, schedule: Q01DX009 (ip), vehicle: water 110 % of control | dose: 25.0 mg/kg/injection, schedule: Q01DX009 (ip), vehicle: water 110 % of control

COc1cc(/C=C(\Cc2ccc(OC)c(OCc3ccccc3)c2)[N+](=O)[O-])ccc1OCc1ccccc1
inactive: dose: 50.0 mg/kg/injection, schedule: Q01DX009 (ip), vehicle: Klucel (hydroxypropylcellulose) (HPC) 89 % of control | dose: 100.0 mg/kg/injection, schedule: Q01DX009 (ip), vehicle: Klucel (hydroxypropylcellulose) (HPC) 87 % of control | dose: 200.0 mg/kg/injection, schedule: Q01DX009 (ip), vehicle: Klucel (hydroxypropylcellulose) (HPC) 88 % of control

CCC[CH2][Sn]([CH2]CCC)([S]CCS(=O)(=O)O)[S]CCS(=O)(=O)O
inactive: dose: 60.0 mg/kg/injection, schedule: Q01DX005 (ip), vehicle: Klucel (hydroxypropylcellulose) (HPC) 100 % of control | dose: 120.0 mg/kg/injection, schedule: Q01DX005 (ip), vehicle: Klucel (hydroxypropylcellulose) (HPC) 101 % of control | dose: 240.0 mg/kg/injection, schedule: Q01DX005 (ip), vehicle: Klucel (hydroxypropylcellulose) (HPC) 99 % of control

Cc1ccc2c(c1Oc1ccc(S(N)(=O)=O)cc1)C(=O)c1ccccc1C2=O
inactive: dose: 100.0 mg/kg/injection, schedule: Q04DX003 (ip), vehicle: saline with Tween-80 100 % of control | dose: 200.0 mg/kg/injection, schedule: Q04DX003 (ip), vehicle: saline with Tween-80 100 % of control | dose: 400.0 mg/kg/injection, schedule: Q04DX003 (ip), vehicle: saline with Tween-80 95 % of control

O=S1(c2ccccc2)=NP(N2CC2)(N2CC2)=NP(N2CC2)(N2CC2)=N1 (centres undefined)
inactive: dose: 18.75 mg/kg/injection, schedule: Q04DX003 (ip), vehicle: saline 99 % of control | dose: 37.5 mg/kg/injection, schedule: Q04DX003 (ip), vehicle: saline 93 % of control | dose: 75.0 mg/kg/injection, schedule: Q04DX003 (ip), vehicle: saline 120 % of control

CN1CCN(CCCO)CC1
inactive: dose: 50.0 mg/kg/injection, schedule: Q01DX005 (ip), vehicle: saline 105 % of control | dose: 100.0 mg/kg/injection, schedule: Q01DX005 (ip), vehicle: saline 97 % of control | dose: 200.0 mg/kg/injection, schedule: Q01DX005 (ip), vehicle: saline 104 % of control

COc1ccc(CC2=CC(=O)C(=O)C=C2C)cc1
inactive: dose: 2.5 mg/kg/injection, schedule: Q01DX009 (ip), vehicle: saline + alcohol 101 % of control | dose: 5.0 mg/kg/injection, schedule: Q01DX009 (ip), vehicle: saline + alcohol 100 % of control | dose: 10.0 mg/kg/injection, schedule: Q01DX009 (ip), vehicle: saline + alcohol 102 % of control

CN(C)c1cc(C(=O)O)nc(C(=O)O)c1
inactive: dose: 25.0 mg/kg/injection, schedule: Q01DX001 (ip), vehicle: Klucel (hydroxypropylcellulose) (HPC) 101 % of control | dose: 50.0 mg/kg/injection, schedule: Q01DX001 (ip), vehicle: Klucel (hydroxypropylcellulose) (HPC) 107 % of control | dose: 100.0 mg/kg/injection, schedule: Q01DX001 (ip), vehicle: Klucel (hydroxypropylcellulose) (HPC) 107 % of control and 87 % of control

CCOC(=O)CC(=O)c1sc(SC)c(C#N)c1N
inactive: dose: 50.0 mg/kg/injection, schedule: Q01DX005 (ip), vehicle: saline with Tween-80 106 % of control | dose: 100.0 mg/kg/injection, schedule: Q01DX005 (ip), vehicle: saline with Tween-80 100 % of control | dose: 200.0 mg/kg/injection, schedule: Q01DX005 (ip), vehicle: saline with Tween-80 93 % of control

COc1cc(-c2ccc(Nc3ccccc3C(=O)O)c(OC)c2)ccc1Nc1ccccc1C(=O)O
inactive: dose: 50.0 mg/kg/injection, schedule: Q01DX009 (ip), vehicle: saline 105 % of control | dose: 100.0 mg/kg/injection, schedule: Q01DX009 (ip), vehicle: saline 100 % of control and 104 % of control and 109 % of control | dose: 200.0 mg/kg/injection, schedule: Q01DX009 (ip), vehicle: saline 110 % of control | dose: 400.0 mg/kg/injection, schedule: Q01DX009 (ip), vehicle: saline 117 % of control and 124 % of control and 86 % of control

COc1cc2c(c(OC)c1OC)-c1cc3c(cc1CC1COC(=O)C1C2)OCO3 (centres undefined)
inactive: dose: 2.5 mg/kg/injection, schedule: Q04DX002 (ip), vehicle: saline with Tween-80 97 % of control and 96 % of control and 102 % of control | dose: 5.0 mg/kg/injection, schedule: Q04DX002 (ip), vehicle: saline with Tween-80 95 % of control [middle of 6 runs] | dose: 10.0 mg/kg/injection, schedule: Q04DX002 (ip), vehicle: saline with Tween-80 101 % of control [middle of 6 runs] | [1] 100 % of control | dose: 20.0 mg/kg/injection, schedule: Q04DX002 (ip), vehicle: saline with Tween-80 96 % of control and 104 % of control | [2] 97 % of control | dose: 25.0 mg/kg/injection, schedule: Q04DX002 (ip), vehicle: saline with Tween-80 100 % of control | [3] 95 % of control | dose: 50.0 mg/kg/injection, schedule: Q04DX002 (ip), vehicle: saline with Tween-80 104 % of control | dose: 100.0 mg/kg/injection, schedule: Q04DX002 (ip), vehicle: saline with Tween-80 87 % of control and 119 % of control | dose: 200.0 mg/kg/injection, schedule: Q04DX002 (ip), vehicle: saline with Tween-80 91 % of control

Cc1ccc(S(=O)(=O)NC(=O)NNC(=O)C(=O)Nc2ccc(F)cc2)cc1
inactive: dose: 50.0 mg/kg/injection, schedule: Q01DX005 (ip), vehicle: Klucel (hydroxypropylcellulose) (HPC) 100 % of control | dose: 100.0 mg/kg/injection, schedule: Q01DX005 (ip), vehicle: Klucel (hydroxypropylcellulose) (HPC) 90 % of control | dose: 200.0 mg/kg/injection, schedule: Q01DX005 (ip), vehicle: Klucel (hydroxypropylcellulose) (HPC) 90 % of control

COc1cccc2c1C(=O)c1c(O)c3c(c(O)c1C2=O)C[C@@](O)(C(C)=O)C[C@@H]3OC1CC([N+]([O-])(Cc2ccccc2)Cc2ccccc2)C(O)C(C)O1 (some centres undefined)
inactive: dose: 3.13 mg/kg/injection, schedule: Q04DX003 (ip), vehicle: distilled water + Tween-80 114 % of control | dose: 6.25 mg/kg/injection, schedule: Q04DX003 (ip), vehicle: distilled water + Tween-80 108 % of control and 121 % of control | dose: 12.5 mg/kg/injection, schedule: Q04DX003 (ip), vehicle: distilled water + Tween-80 123 % of control
active: dose: 25.0 mg/kg/injection, schedule: Q04DX003 (ip), vehicle: distilled water + Tween-80 150 % of control and 183 % of control | dose: 50.0 mg/kg/injection, schedule: Q04DX003 (ip), vehicle: distilled water + Tween-80 185 % of control and 212 % of control | dose: 100.0 mg/kg/injection, schedule: Q04DX003 (ip), vehicle: distilled water + Tween-80 237 % of control

COc1ccc(C2=C(Cl)C(=O)N(c3ccc(Cl)cc3)C(=O)C2(Cl)Cl)cc1
inactive: dose: 100.0 mg/kg/injection, schedule: Q04DX002 (ip), vehicle: Klucel (hydroxypropylcellulose) (HPC) 101 % of control | dose: 200.0 mg/kg/injection, schedule: Q04DX002 (ip), vehicle: Klucel (hydroxypropylcellulose) (HPC) 94 % of control | dose: 400.0 mg/kg/injection, schedule: Q04DX002 (ip), vehicle: Klucel (hydroxypropylcellulose) (HPC) 97 % of control

COC(=O)c1ccc(C(=S)SC)cc1
inactive: dose: 100.0 mg/kg/injection, schedule: Q04DX002 (ip), vehicle: saline 100 % of control | dose: 200.0 mg/kg/injection, schedule: Q04DX002 (ip), vehicle: saline 100 % of control | dose: 400.0 mg/kg/injection, schedule: Q04DX002 (ip), vehicle: saline 99 % of control
